Results as given in patent publication US8293479B2, “Use of parathyroid hormone-related protein(PTHRP) in the diagnosis and treatment of chronic lung disease and other pathologies” (Los Angeles Biomedical Research Institute at Harbor UCLA …, priority 2002, dated 2012).

Key:
[1] = tested on: Myofibroblasts (P10s); assay: PGJ2 treatment of P10 myofibroblasts, lipofibroblast marker expression; type: cell-based, rat; settings: PGJ2 30 µM, up to 144 hours (FIG. 13)
[2] = tested on: fetal rat lung fibroblasts (FRLF); assay: PGJ2 treatment of fetal rat lung fibroblasts, spontaneous and hyperoxia-induced lipo-to-myofibroblast transdifferentiation; type: cell-based; settings: PGJ2 30 µM
Method: e18 (pre-term) and e21 (near term) fetal rat lung fibroblasts were maintained in DMEM+10% fetal bovine serum in 21% (control) or 95% (experimental) O2+5% CO2 in sealed modular incubator chambers (Billups-Rothenberg, Del Mar, Calif.) kept at 37° C. in standard incubators. Modular incubators were flushed for 3 min at a flow rate of 10 liters/min with either 21 or 95% O2+5% CO2 with remainder of the gas mixture as N2. Modular incubators were then sealed and then put in standard cell culture incubators. When confluent, cells were passaged and allowed to grow in 21% O2 for 24 h. Subsequently, control cells were maintained in 21% O2+5% CO2 and experimental cells in 95% O2+5% CO2 in modular incubators as described above This was continued up to passage 5. Passage 1 and 5 cells were studied for the expression of various lipogenic and myogenic markers by reverse transcriptase-polymerase chain reaction (RT-PCR).
RT PCR probes used included-Rat Parathyroid Hormone related Protein Receptor (PTHrPR): 5′ CTCTTCTTGACTGTTGTCGCTGGT (SEQ ID NO:14) and 3′[…] […] Rat alpha Smooth Muscle Actin (SMA). RT-PCR was carried out for 2 hours at 37° C. in 50 mM Tris buffer, pH 8.3 containing 75 mM KCl, 3 mM MgCl2 and 10 mM DTT. […] The cDNA is adjusted to equal concentrations as assessed by the PCR of the constitutively expressed gene, GAPDH (rat lung GAPDH). […]

[3] = tested on: fetal rat lung type II cells; assay: Co-culture of fetal rat type II cells with PGJ2-pretreated myofibroblasts, cell count and RT-PCR for Surfactant Protein B; type: cell-based
Method: FIGS. 14A and 14B show the effect of lipofibroblasts and myofibroblasts on fetal rat type II cell growth and differentiation. Fetal type II cells were co-cultured with lipofibroblasts, myofibroblasts or myofibroblasts pretreated with PGJ2. Cell growth was determined by cell count and differentiation was determined by RT-PCR for Surfactant Protein B. Note that in the presence of lipofibroblasts or myofibroblasts treated with PGJ2 that type II cells grow (see Figure on left) and differentiate (Figure on right) with time in culture. […] Day 1 v subsequent day in culture, *, p<0.05; **; p<0.01; ***,p<0.0001 by Analysis of Variance.
In order to link the process of fibroblast transdifferentiation to alveolarization, we recombined day 19 fetal rat lung type II cells with either P1 lipofibroblasts, P10 myofibroblasts, or P10 myofibroblasts pretreated with PGJ2; PGJ2 induces the transdifferentiation of myofibroblasts to lipofibroblasts (Hu et al. (1995) Proc. Natl. Acad. Sci. USA 92:9856-9860).

[4] = tested on: E19 fetal rat lung fibroblasts; assay: PTHrP treatment of fetal rat lung fibroblasts, ADRP mRNA by competitive RT-PCR; type: cell-based; settings: 0.5 µM PTHrP (printed 0.5:M), 15 hours, normalized to GAPDH
[5] = tested on: E21 fetal rat lung lipofibroblasts; assay: PTHrP treatment of serially passaged (P4) transdifferentiating lipofibroblasts, marker expression by competitive RT-PCR; type: cell-based; settings: PTHrP 0.5 µM, compared with P1
[6] = tested on: d18 FRLFs; assay: Antioxidant pretreatment of FRLFs exposed to hyperoxia, ADRP mRNA expression; type: cell-based, rat; settings: 95% O2 for 24 h, one hour antioxidant pretreatment
Method: RT-PCR was carried out for 2 hours at 37° C. in 50 mM Tris buffer, pH 8.3 containing 75 mM KCl, 3 mM MgCl2 and 10 mM DTT. The total volume of incubation was 20 μl and it contained 0.5 mM each of dNTP, 20 U of RNasin, 25 pmol of oligo(dt) primer and 200 U of Moroney murine leukemia virus reverse transcriptase. […] The cDNA is adjusted to equal concentrations as assessed by the PCR of the constitutively expressed gene, GAPDH (rat lung GAPDH). […]

## CCCCC[C@H](O)/C=C/[C@H]1C(=O)C=C[C@@H]1C/C=C\CCCC(=O)O [PGJ2, prostaglandin J2]
[1]
  expression of ADRP by P10 myofibroblasts: increased the expression of ADRP
[2]; 24 h treatment
  hyperoxia induced lipo-to-myofibroblast transdifferentiation: partially blunts
[2]; up to 72 h in culture
  spontaneous decrease in ADRP mRNA expression: attenuated
[3]; type II cells co-cultured with PGJ2-treated P10 myofibroblasts
  Surfactant Protein-B expression by type II cells: comparable to that by lipofibroblasts
[3]; type II cells co-cultured with PGJ2 pre-treated P10 myofibroblasts, 5 day culture
  type II cell proliferation (cell number): comparable to that of primary lipofibroblasts

## PTHrP: Parathyroid Hormone-related Protein; PTHrP (1-34) and PTHrP (7-34) amide were obtained from Bachem
[4]
  ADRP expression: inducing ADRP expression
[5]; P4 lipofibroblasts, 24 hour treatment
  alpha SMA expression: decreased alpha SMA expression down to levels comparable to those observed for P1s
[5]; lipofibroblasts treated at Passage 4 for 24 hours
  PTHrP receptor expression (printed in b310 as PTHrP expression): increase in PTHrP expression up to a level comparable to that of P1s

## superoxide dismutase
[6]
  prevention of hyperoxia-induced decrease in ADRP mRNA expression: ineffective
